Experimental data: patent US20090137492A1 (priority 2006, published 2009)
“And” between values parts separate entries of the source, which are not always exact repeats. Equal entries are not always repeated. “Also recorded” adds a separate entry of the source.

Assays:
anthrax spores = system: anthrax spores; parameters: species or system murine (A/J mice); settings: mouse, in vivo
IL-6 = system: IL-6; parameters: species or system cotton rat; settings: rat, in vivo
[1] = system: H3N2/Wuhan influenza virus; parameters: species or system cotton rat; settings: rat, in vivo
[2] = system: B. anthracis Sterne spores; parameters: species or system Mice of the A/J strain; settings: mouse, in vivo
[3] = mouse, in vivo
IL-1beta = type: cell-based
IL-10 = type: cell-based
[4] = system: IL-1beta, IL-6, IL-10, TNF-alpha, Toll-Like Receptors (TLRs), NODs, SOCS; type: cell-based

Which “increase in survival rates” value (anthrax spores) does the source give for “Sar^9, Met(O2)^11-Substance P [Viprovex]” here?
Its value is 240%.

And the “protection against anthrax-induced death” value (anthrax spores)?
The value was “partially protect against anthrax-induced death”.

What about the “protection from death, time course” value (anthrax spores) of the same substance?
Its value is “clearly protected from death as early as 5 days post-exposure; also recorded: maintained survival from approximately day 10 onward”.

And the survival rate (anthrax spores)?
Its survival rate is 68.8% and 62.5%.

What about the “survival, of the animals that would otherwise have died” value (anthrax spores) of the same substance?
The value was 20-70%.

And the “IL-6 levels in the lungs” value (IL-6)?
Its value is “do not significantly increase”.

What about the “Il-6, single animals” value (IL-6) of the same substance?
Its value is 1.623 and 1.253 and 2.458 and 2.167 and 3.013 and 0 and 2.416 and 7.483 and 1.791.

What about the “efficacy against influenza virus infection” value [1] of the same substance?
Its value is “provides therapeutic efficacy in animal models of infection by influenza virus; also recorded: more resistant to the effects of H3N2/Wuhan influenza virus”.

And the inhibition of lethality [2]?
Its inhibition of lethality is “dose dependent inhibition of lethality”.

What about the “treated animals that died” value [2] of the same substance?
The value was 2 of the 6.

What about the toxicity [3] of the same substance?
The toxicity was “no toxicity was observed”.

And the “IL-1 mRNA increase relative to IL-6 increase” value (IL-1beta)?
Its value is 28 ×.

And the “IL-10 mRNA increase relative to IL-6 increase” value (IL-10)?
Its value is 21 ×.

What about the “elevation of components of the host immune system” value [4] of the same substance?
The value was “elevation of cytokines, interleukins, TLR, defensins and other components of immune surveillance; also recorded: elevate multiple components of the host immune system”.
